# Results: US20240182465A1 (GENFLEET THERAPEUTICS (SHANGHAI) INC., priority 2021, published 2024)
# What was measured:
# HPK1 [1] = target: T1, HPK1 (Homo sapiens, UniProt Q92918); experiment: HPK1 kinase activity assay (ADP-Glo); conditions: HPK1 Kinase activity IC50 (nM), 1 nM HPK1, 10 μM ATP, 0.1 μg/μL MBP
# T1 sequence (Q92918 1-346 limits assumed): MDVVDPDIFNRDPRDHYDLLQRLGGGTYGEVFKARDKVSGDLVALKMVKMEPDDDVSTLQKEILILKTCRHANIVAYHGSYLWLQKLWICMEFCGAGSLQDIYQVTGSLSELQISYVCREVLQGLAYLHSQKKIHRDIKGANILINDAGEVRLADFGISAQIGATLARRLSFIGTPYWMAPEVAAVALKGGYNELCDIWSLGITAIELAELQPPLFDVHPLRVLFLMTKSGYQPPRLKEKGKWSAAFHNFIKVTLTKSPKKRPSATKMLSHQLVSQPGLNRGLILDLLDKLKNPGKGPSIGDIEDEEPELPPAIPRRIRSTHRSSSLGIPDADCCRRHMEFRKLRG
# HPK1 [2] = target: HPK1 (Homo sapiens, UniProt Q92918); experiment: SLP76 phosphorylation assay (intracellular HPK1 inhibitory activity, p-SLP76 Ser376 sandwich ELISA); conditions: p-SLP76 IC50(nM), Jurkat, Clone E6-1 cells; 1 h compound pre-incubation, anti-CD3 beads stimulation 20 min; SLP76 phosphorylation at S376
# Target sequence in this assay (Q92918 whole entry): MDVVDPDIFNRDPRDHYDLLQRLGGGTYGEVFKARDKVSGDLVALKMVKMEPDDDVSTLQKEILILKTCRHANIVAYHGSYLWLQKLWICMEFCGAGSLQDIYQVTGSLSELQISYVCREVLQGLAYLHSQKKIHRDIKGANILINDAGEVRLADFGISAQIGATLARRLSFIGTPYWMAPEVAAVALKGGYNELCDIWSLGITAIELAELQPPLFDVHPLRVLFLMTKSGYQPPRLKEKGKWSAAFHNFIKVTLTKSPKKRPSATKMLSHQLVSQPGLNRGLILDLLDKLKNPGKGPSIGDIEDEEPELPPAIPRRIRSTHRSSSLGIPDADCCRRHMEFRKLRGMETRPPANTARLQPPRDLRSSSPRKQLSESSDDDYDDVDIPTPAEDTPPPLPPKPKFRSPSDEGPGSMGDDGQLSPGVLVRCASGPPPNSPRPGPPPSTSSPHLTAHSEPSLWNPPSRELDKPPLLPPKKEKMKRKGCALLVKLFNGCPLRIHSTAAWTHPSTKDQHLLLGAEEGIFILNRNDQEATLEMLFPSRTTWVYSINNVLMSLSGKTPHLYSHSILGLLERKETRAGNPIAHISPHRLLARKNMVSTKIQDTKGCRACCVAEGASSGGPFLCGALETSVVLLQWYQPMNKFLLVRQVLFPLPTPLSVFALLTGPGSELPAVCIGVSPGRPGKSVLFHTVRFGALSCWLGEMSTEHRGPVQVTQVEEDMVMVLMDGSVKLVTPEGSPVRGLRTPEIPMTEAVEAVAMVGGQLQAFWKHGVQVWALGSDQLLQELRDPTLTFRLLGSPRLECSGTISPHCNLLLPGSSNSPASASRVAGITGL
Compound,IC50 (HPK1 [1]) [nM],IC50 (HPK1 [2]) [nM]
"Cc1c[nH]c2ncc(-c3cc4c(c([C@@H]5CCCN5)c3)CN(C(=O)c3ccccn3)CC4)cc12 [Compound Z211, (S)-(6-(3-methyl-1H-pyrrolo[2,3-b]pyridin-5-yl)-8-(pyrrolidin-2-yl)-3,4-dihydroisoquinolin-2(1H)-yl) (pyridin-2-yl)methanone]",1.7,463
"Cc1ccc(-c2c[nH]c3ncc(-c4cc5c(c([C@@H]6CCCN6)c4)COCC5)cc23)cn1 [Compound Z212, (S)-3-(6-methylpyridin-3-yl)-5-(8-(pyrrolidin-2-yl)isochroman-6-yl)-1H-pyrrolo[2,3-b]pyridine]",3.76,909
"Cc1c[nH]c2ncc(-c3cc4c(c([C@@H]5CCCN5)c3)CN(C(=O)c3ccncn3)CC4)cc12 [Compound Z221, (S)-(6-(3-methyl-1H-pyrrolo[2,3-b]pyridin-5-yl)-8-(pyrrolidin-2-yl)-3,4-dihydroisoquinolin-2(1H)-yl) (pyrimidin-4-yl)methanone]",1.27,215
"Cc1c[nH]c2ncc(-c3cc4c(c([C@@H]5CCCN5)c3)CN(C(=O)c3ccn(C)n3)CC4)cc12 [Compound Z223, (S)-(1-methyl-1H-pyrazol-3-yl)(6-(3-methyl-1H-pyrrolo[2,3-b]pyridin-5-yl)-8-(pyrrolidin-2-yl)-3,4-dihydroisoquinolin-2(1H)-yl)methanone]",1.6,301
"Cc1c[nH]c2ncc(-c3cc4c(c([C@@H]5CCCN5)c3)CN(C(=O)c3cnn(C)c3)CC4)cc12 [Compound Z224, (S)-(1-methyl-1H-pyrazol-4-yl)(6-(3-methyl-1H-pyrrolo[2,3-b]pyridin-5-yl)-8-(pyrrolidin-2-yl)-3,4-dihydroisoquinolin-2(1H)-yl)methanone]",1.11,333
"C=C1COCc2c(cc(-c3cnc4[nH]cc(C)c4c3)cc2[C@@H]2CCCN2)C1 [Compound Z230, (S)-3-methyl-5-(4-methylene-9-(pyrrolidin-2-yl)-1,3,4,5-tetrahydrobenzo[c]oxepin-7-yl)-1H-pyrrolo[2,3-b]pyridine]",1.04,438
"Cc1c[nH]c2ncc(-c3cc4c(c(C5CC(=O)N5)c3)COCC4)cc12 (centres unmarked) [Compound Z231, 4-(6-(3-methyl-1H-pyrrolo[2,3-b]pyridin-5-yl)isochroman-8-yl)azetidin-2-one]",35.3,> 10000
"Cc1c[nH]c2ncc(-c3cc4c(c(C5CCN5)c3)COCC4)cc12 (centres unmarked) [Compound Z232, 5-(8-(azetidin-2-yl)isochroman-6-yl)-3-methyl-1H-pyrrolo[2,3-b]pyridine]",20.5,1660
"CN(C)Cc1cc(-c2cnc3[nH]cc(Cl)c3c2)cc2c1COCC2 [Compound Z233, 1-(6-(3-chloro-1H-pyrrolo[2,3-b]pyridin-5-yl)isochroman-8-yl)-N,N-dimethylmethanamine]",4.01,520
"CC(=O)N1Cc2cc(-c3cnc4[nH]cc(C)c4c3)cc([C@@H]3CCCN3)c2C1 [Compound Z235, (S)-1-(6-(3-methyl-1H-pyrrolo[2,3-b]pyridin-5-yl)-4-(pyrrolidin-2-yl)isoindolin-2-yl)ethan-1-one]",1.32,735
"CCN1Cc2c(cc(-c3cnc4[nH]cc(C)c4c3)cc2[C@@H]2CCCN2)C1=O [Compound Z236, (S)-2-ethyl-6-(3-methyl-1H-pyrrolo[2,3-b]pyridin-5-yl)-4-(pyrrolidin-2-yl)isoindolin-1-one]",29.6,3810

# Results, then the molecule that gave them:
IC50 (HPK1 [1]) [nM],IC50 (HPK1 [2]) [nM],Compound
0.64,318,"Cc1cc(C(=O)N2CCc3cc(-c4cnc5[nH]cc(C)c5c4)cc([C@@H]4CCCN4)c3C2)ccn1 [Compound Z213, (S)-(6-(3-methyl-1H-pyrrolo[2,3-b]pyridin-5-yl)-8-(pyrrolidin-2-yl)-3,4-dihydroisoquinolin-2(1H)-yl) (2-methylpyridin-4-yl)methanone]"
1.04,181,"Cc1cc(C(=O)N2CCc3cc(-c4cnc5[nH]cc(C)c5c4)cc([C@@H]4CCCN4)c3C2)cc(C)n1 [Compound Z214, (S)-(6-(3-methyl-1H-pyrrolo[2,3-b]pyridin-5-yl)-8-(pyrrolidin-2-yl)-3,4-dihydroisoquinolin-2(1H)-yl) (2,6-dimethylpyridin-4-yl)methanone]"
0.51,444,"COc1cc(C(=O)N2CCc3cc(-c4cnc5[nH]cc(C)c5c4)cc([C@@H]4CCCN4)c3C2)ccn1 [Compound Z215, (S)-(6-(3-methyl-1H-pyrrolo[2,3-b]pyridin-5-yl)-8-(pyrrolidin-2-yl)-3,4-dihydroisoquinolin-2(1H)-yl) (2-methoxypyridin-4-yl)methanone]"
0.41,108,"Cc1c[nH]c2ncc(-c3cc4c(c([C@@H]5CCCN5)c3)CN(C(=O)C(C)(C)O)CC4)cc12 [Compound Z216, (S)-2-hydroxy-2-methyl-1-(6-(3-methyl-11H-pyrrolo[2,3-b]pyridin-5-yl)-8-(pyrrolidin-2-yl)-3,4-dihydroisoquinolin-2(1H)-yl)propan-1-one]"
0.44,133,"CCNC(=O)N1CCc2cc(-c3cnc4[nH]cc(C)c4c3)cc([C@@H]3CCCN3)c2C1 [Compound Z217, (S)—N-ethyl-6-(3-methyl-1H-pyrrolo[2,3-b]pyridin-5-yl)-8-(pyrrolidin-2-yl)-3,4-dihydroisoquinoline-2(1H)-carboxamide]"
0.81,367,"Cc1c[nH]c2ncc(-c3cc4c(c([C@@H]5CCCN5)c3)CN(C(=O)CC3CCOCC3)CC4)cc12 [Compound Z218, (S)-1-(6-(3-methyl-1H-pyrrolo[2,3-b]pyridin-5-yl)-8-(pyrrolidin-2-yl)-3,4-dihydroisoquinolin-2(1H)-yl)-2-(tetrahydro-2H-pyran-4-yl)ethanone]"
0.42,174,"Cc1c[nH]c2ncc(-c3cc4c(c([C@@H]5CCCN5)c3)CN(C(=O)[C@@H]3CCOC3)CC4)cc12 [Compound Z219-1, (S)-(6-(3-methyl-1H-pyrrolo[2,3-b]pyridin-5-yl)-8-(pyrrolidin-2-yl)-3,4-dihydroisoquinolin-2(1H)-yl) ((R)-tetrahydrofuran-3-yl)methanone]"
0.35,122,"Cc1c[nH]c2ncc(-c3cc4c(c([C@@H]5CCCN5)c3)CN(C(=O)[C@H]3CCOC3)CC4)cc12 [Compound Z219-2, (S)-(6-(3-methyl-1H-pyrrolo[2,3-b]pyridin-5-yl)-8-(pyrrolidin-2-yl)-3,4-dihydroisoquinolin-2(1H)-yl) ((S)-tetrahydrofuran-3-yl)methanone]"
0.66,257,Cc1c[nH]c2ncc(-c3cc4c(c([C@@H]5CCCN5)c3)CN(C(=O)C3CCOC3)CC4)cc12 (some centres unmarked) [Compound Z219]
0.46,276,"Cc1c[nH]c2ncc(-c3cc4c(c([C@@H]5CCCN5)c3)COC3(CC3)C4)cc12 [Compound Z229, (S)-3-methyl-5-(8′-(pyrrolidin-2-yl)spiro[cyclopropane-1,3′-isochroman]-6′-yl)-1H-pyrrolo[2,3-b]pyridine]"
0.71,100,"Cc1ccncc1C#Cc1c[nH]c2ncc(-c3cc4c(c([C@@H]5CCCN5)c3)COCC4)cc12 [Compound Z237, (S)-3-((4-methylpyridin-3-yl)ethynyl)-5-(8-(pyrrolidin-2-yl)isochroman-6-yl)-1H-pyrrolo[2,3-b]pyridine]"
